# In patent US8987195B2 (priority 2012, dated 2015):
# Read-outs that look alike come from different tables or passages of the source.
# What was measured:
# HCV genotype 1b replicon = test: HCV replicon assay, genotype 1b replicon EC50; type: cell-based, Hepatitis C virus; details: HCV replicon, genotype 1b, read-out: EC50 [gt-1b]
# In short: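 Replicon cells (Neo^r, some luciferase:Neo^r fusion); G418 removed at plating; compound dilution series, 24-48 h. Readout: RNA by 32P-probe hybridization/protection or TaqMan, normalized to cyclophilin A RNA, or luciferase. EC50 vs DMSO control, 4-parameter fit.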
# [1] = molecular target: HCV NS3/4A protease genotype 1b (Hepatitis C virus genotype 1b, UniProt P26663); test: HCV NS3/4A protease time-resolved fluorescence (TRF) assay, Ki against genotype 1b; type: biochemical; details: IC50 [gt-1b], NS3/4A protease TRF assay, genotype 1b enzyme 0.2 nM
# In short: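 Ki was converted from fitted IC50 using IC50=Ki(1+[S]/KM) and 25 nM substrate. Protease (genotype 1b 0.2 nM, A156T 0.4 nM, 3a 0.025 nM) and compound were pre-mixed 30 min in pH 7.5 HEPES/NaCl/glycerol/DTT buffer. Cleavage then proceeded 2.5 h at room temperature, detected by time-resolved europium fluorescence (340/615 nm).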
Structure (SMILES),EC50 (HCV genotype 1b replicon; K+ salt) [nM],IC50 ([1]; K+ salt) [nM],EC50 (HCV genotype 1b replicon; Hepatitis C virus) [nM],IC50 [1] [nM],"EC50 (HCV genotype 1b replicon; Hepatitis C virus, K+ salt) [nM]"
"COc1ccc2nc(C)c3c(c2c1)CC[C@]1(C[C@H]2C(=O)N[C@]4(C(=O)NS(=O)(=O)C5(C)CC5)C[C@H]4/C=C\CCCCC[C@H](NC(=O)OC(C(C)C)C(F)(F)F)C(=O)N2C1)O3 (stereo partly drawn) [Example 408, 1,1,1-trifluoro-3-methylbutan-2-yl [(2R,6S,12Z,13aS,14aR,16aS)-9′-methoxy-5′-methyl-14a-{[(1-methylcyclopropyl)sulfonyl]carbamoyl}-5,16-dioxo-1,1′,2′,5,6,7,8,9,10,11,13a,14,14a,15,16,16a-hexadecahydrospiro[cyclopropa[e]pyrrolo[1,2-a][1,4]diazacyclopentadecine-2,3′-pyrano[2,3-c]quinolin]-6-yl]carbamate]",1.23,0.023,–,–,–
"COCCOc1ccc2nc(C)c3c(c2c1)CC[C@]1(C[C@H]2C(=O)N[C@]4(C(=O)NS(=O)(=O)C5(C)CC5)C[C@H]4/C=C\CCCCC[C@H](NC(=O)OC(C)(C)C)C(=O)N2C1)O3 [Example 409, tert-butyl [(2R,6S,12Z,13aS,14aR,16aS)-9′-(2-methoxyethoxy)-5′-methyl-14a-{[(1-methylcyclopropyl)sulfonyl]carbamoyl}-5,16-dioxo-1,1′,2′,5,6,7,8,9,10,11,13a,14,14a,15,16,16a-hexadecahydrospiro[cyclopropa[e]pyrrolo[1,2-a][1,4]diazacyclopentadecine-2,3′-pyrano[2,3-c]quinolin]-6-yl]carbamate]",–,–,4.73,0.02,–
"COCCOc1ccc2nc(C)c3c(c2c1)CC[C@]1(C[C@H]2C(=O)N[C@]4(C(=O)NS(=O)(=O)C5(C)CC5)C[C@H]4/C=C\CCCCC[C@H](NC(=O)OCC(C)(C)C)C(=O)N2C1)O3 [Example 410, 2,2-dimethylpropyl [(2R,6S,12Z,13aS,14aR,16aS)-9′-(2-methoxyethoxy)-5′-methyl-14a-{[(1-methylcyclopropyl)sulfonyl]carbamoyl}-5,16-dioxo-1,1′,2′,5,6,7,8,9,10,11,13a,14,14a,15,16,16a-hexadecahydrospiro[cyclopropa[e]pyrrolo[1,2-a][1,4]diazacyclopentadecine-2,3′-pyrano[2,3-c]quinolin]-6-yl]carbamate]",–,–,3.1,0.011,–
"COCCOc1ccc2nc(C)c3c(c2c1)CC[C@]1(C[C@H]2C(=O)N[C@]4(C(=O)NS(=O)(=O)C5(C)CC5)C[C@H]4/C=C\CCCCC[C@H](NC(=O)OCC(C)C)C(=O)N2C1)O3 [Example 411, 2-methylpropyl [(2R,6S,12Z,13aS,14aR,16aS)-9′-(2-methoxyethoxy)-5′-methyl-14a-{[(1-methylcyclopropyl)sulfonyl]carbamoyl}-5,16-dioxo-1,1′,2′,5,6,7,8,9,10,11,13a,14,14a,15,16,16a-hexadecahydrospiro[cyclopropa[e]pyrrolo[1,2-a][1,4]diazacyclopentadecine-2,3′-pyrano[2,3-c]quinolin]-6-yl]carbamate]",–,–,5.77,0.064,–
"COc1ccc2nc(C3CC3)c3c(c2c1)CC[C@]1(C[C@H]2C(=O)N[C@]4(C(=O)NS(=O)(=O)C5(C)CC5)C[C@H]4/C=C\CCCCC[C@H](NC(=O)O[C@@H](C)C(C)C)C(=O)N2C1)O3 [Example 412, (2S)-3-methylbutan-2-yl [(2R,6S,12Z,13aS,14aR,16aS)-5′-cyclopropyl-9′-methoxy-14a-{[(1-methylcyclopropyl)sulfonyl]carbamoyl}-5,16-dioxo-1,1′,2′,5,6,7,8,9,10,11,13a,14,14a,15,16,16a-hexadecahydrospiro[cyclopropa[e]pyrrolo[1,2-a][1,4]diazacyclopentadecine-2,3′-pyrano[2,3-c]quinolin]-6-yl]carbamate]",–,0.038,–,–,1.42
"COc1ccc2nc(C3CC3)c3c(c2c1)CC[C@]1(C[C@H]2C(=O)N[C@]4(C(=O)NS(=O)(=O)C5(C)CC5)C[C@H]4/C=C\CCCCC[C@H](NC(=O)O[C@H](C)C(C)C)C(=O)N2C1)O3 [Example 413, (2R)-3-methylbutan-2-yl [(2R,6S,12Z,13aS,14aR,16aS)-5′-cyclopropyl-9′-methoxy-14a-{[(1-methylcyclopropyl)sulfonyl]carbamoyl}-5,16-dioxo-1,1′,2′,5,6,7,8,9,10,11,13a,14,14a,15,16,16a-hexadecahydrospiro[cyclopropa[e]pyrrolo[1,2-a][1,4]diazacyclopentadecine-2,3′-pyrano[2,3-c]quinolin]-6-yl]carbamate]",–,0.021,–,–,2.53
"Cc1nc2ccccc2c2c1O[C@]1(CC2)C[C@H]2C(=O)N[C@]3(C(=O)NS(=O)(=O)C4(C)CC4)C[C@H]3/C=C\CCCCC[C@H](Nc3cc(C(F)(F)F)ccn3)C(=O)N2C1 [Example 414, (2R,6S,12Z,13aS,14aR,16aS)-5′-methyl-N-[(1-methylcyclopropyl)sulfonyl]-5,16-dioxo-6-{[4-(trifluoromethyl)pyridin-2-yl]amino}-1,1′,2′,6,7,8,9,10,11,13a,14,15,16,16a-tetradecahydrospiro[cyclopropa[e]pyrrolo[1,2-a][1,4]diazacyclopentadecine-2,3′-pyrano[2,3-c]quinoline]-14a(5H)-carboxamide]",–,–,5.16,0.047,–
"COc1cccc(N[C@H]2CCCCC/C=C\[C@@H]3C[C@@]3(C(=O)NS(=O)(=O)C3(C)CC3)NC(=O)[C@@H]3C[C@]4(CCc5c(c(C)nc6ccccc56)O4)CN3C2=O)n1 [Example 415, (2R,6S,12Z,13aS,14aR,16aS)-6-[(6-methoxypyridin-2-yl)amino]-5′-methyl-N-[(1-methylcyclopropyl)sulfonyl]-5,16-dioxo-1,1′,2′,6,7,8,9,10,11,13a,14,15,16,16a-tetradecahydrospiro[cyclopropa[e]pyrrolo[1,2-a][1,4]diazacyclopentadecine-2,3′-pyrano[2,3-c]quinoline]-14a(5H)-carboxamide]",–,–,16.3,0.118,–
"Cc1ccc2nc(C(F)(F)F)c3c(c2c1)CC[C@]1(C[C@H]2C(=O)N[C@]4(C(=O)NS(=O)(=O)C5(C)CC5)C[C@H]4/C=C\CCCCC[C@H](NC(=O)OCCN4CCCC4)C(=O)N2C1)O3 [Example 416, 2-(pyrrolidin-1-yl)ethyl [(2R,6S,12Z,13aS,14aR,16aS)-9′-methyl-14a-{[(1-methylcyclopropyl)sulfonyl]carbamoyl}-5,16-dioxo-5′-(trifluoromethyl)-1,1′,2′,5,6,7,8,9,10,11,13a,14,14a,15,16,16a-hexadecahydrospiro[cyclopropa[e]pyrrolo[1,2-a][1,4]diazacyclopentadecine-2,3′-pyrano[2,3-c]quinolin]-6-yl]carbamate]",–,–,272,0.164,–
"Cc1ccc2nc(C(F)(F)F)c3c(c2c1)CC[C@]1(C[C@H]2C(=O)N[C@]4(C(=O)NS(=O)(=O)C5(C)CC5)C[C@H]4/C=C\CCCCC[C@H](NC(=O)OCCN4CCCCC4)C(=O)N2C1)O3 [Example 417, 2-(piperidin-1-yl)ethyl [(2R,6S,12Z,13aS,14aR,16aS)-9′-methyl-14a-{[(1-methylcyclopropyl)sulfonyl]carbamoyl}-5,16-dioxo-5′-(trifluoromethyl)-1,1′,2′,5,6,7,8,9,10,11,13a,14,14a,15,16,16a-hexadecahydrospiro[cyclopropa[e]pyrrolo[1,2-a][1,4]diazacyclopentadecine-2,3′-pyrano[2,3-c]quinolin]-6-yl]carbamate]",–,–,45.3,0.094,–
"Cc1nc2ccc(OCCN3CCOCC3)cc2c2c1O[C@]1(CC2)C[C@H]2C(=O)N[C@]3(C(=O)NS(=O)(=O)C4(C)CC4)C[C@H]3/C=C\CCCCC[C@H](NC(=O)OC(C)(C)C)C(=O)N2C1 [Example 418, tert-butyl {(2R,6S,12Z,13aS,14aR,16aS)-5′-methyl-14a-{[(1-methylcyclopropyl)sulfonyl]carbamoyl}-9′-[2-(morpholin-4-yl)ethoxy]-5,16-dioxo-1,1′,2′,5,6,7,8,9,10,11,13a,14,14a,15,16,16a-hexadecahydrospiro[cyclopropa[e]pyrrolo[1,2-a][1,4]diazacyclopentadecine-2,3′-pyrano[2,3-c]quinolin]-6-yl}carbamate]",–,–,6.24,0.008,–
"COc1ccc2nc(C(C)C)c3c(c2c1)[C@H](F)C[C@]1(C[C@H]2C(=O)N[C@]4(C(=O)NS(=O)(=O)C5(C)CC5)C[C@H]4/C=C\CCCCC[C@H](NC(=O)O[C@@H](C)C(C)C)C(=O)N2C1)O3 [Example 419, (2S)-3-methylbutan-2-yl [(1′R,2S,6S,12Z,13aS,14aR,16aS)-1′-fluoro-9′-methoxy-14a-{[(1-methylcyclopropyl)sulfonyl]carbamoyl}-5,16-dioxo-5′-(propan-2-yl)-1,1′,2′,5,6,7,8,9,10,11,13a,14,14a,15,16,16a-hexadecahydrospiro[cyclopropa[e]pyrrolo[1,2-a][1,4]diazacyclopentadecine-2,3′-pyrano[2,3-c]quinolin]-6-yl]carbamate]",–,0.038,–,–,1.75
"CC[C@@H](C)OC(=O)N[C@H]1CCCCC/C=C\[C@@H]2C[C@@]2(C(=O)NS(=O)(=O)C2(C)CC2)NC(=O)[C@@H]2C[C@]3(CCc4c(c(C5CC5)nc5ccc(OC)cc45)O3)CN2C1=O [Example 420, (2R)-butan-2-yl [(2R,6S,12Z,13aS,14aR,16aS)-5′-cyclopropyl-9′-methoxy-14a-{[(1-methylcyclopropyl)sulfonyl]carbamoyl}-5,16-dioxo-1,1′,2′,5,6,7,8,9,10,11,13a,14,14a,15,16,16a-hexadecahydrospiro[cyclopropa[e]pyrrolo[1,2-a][1,4]diazacyclopentadecine-2,3′-pyrano[2,3-c]quinolin]-6-yl]carbamate]",–,0.011,–,–,1.25
